Laboratory results: patent publication US8586599B2, “Polymorphic forms of 6-(1-methyl-1H-pyrazol-4-yl)-2-{3-[5-(2-morpholin-4-yl-ethoxy)-pyrimidin-2-yl]-benzyl}-2H-pyridazin-3-one dihydrogenphosphate and processes of manufacturing thereof” (Merck Patent GmbH, priority 2008, dated 2013)
Values after ≈ are worked out from the molar mass of the structure shown.

What was measured:
physchem = settings: organic solvent or mixture, thermodynamic from solid
Method: (§2) The dispersion was agitated at RT for 2 hours at 450 rpm. After filtration of the dispersion after 2 hours, the filtrate is analysed by HPLC (dilution may be necessary before analysis).

[1] = Water Vapour Sorption Isotherm (25° C.); type: physicochemical; settings: for Relative humidity range with small water uptake levels upon adsorption / Water uptake levels at elevated relative humidity (hydrate formation) / Relative humidity above which pronounced water uptake levels are observed / Relative humidity above which re-conversion to the hydrate form occurs upon adsorption / Relative humidity below which hydrate water is lost: 25° C.; for Relative humidity below which hydrate water is lost: desorption
Excerpt: The crystalline modifications of the present invention can be characterized according to standard methods which can be found e.g. in Rolf Hilfiker, ‘Polymorphism in the Pharmaceutical Industry’, Wiley-VCH, Weinheim 2006, and references therein, e.g. X-Ray diffraction (XRD; chapter 6), IR and Raman spectroscopy (chapter 5), Differential Scanning Calorimetry (DSC) and Thermogravimetric Analysis (TGA) (chapter 3), Water Vapour Sorption Studies (chapter 9), or which can be found e.g. in H. G. Brittain (editor), Polymorphism in Pharmaceutical Solids, Vol. 95, Marcel Dekker Inc., New York 1999 (chapter 6: all there mentioned techniques).
Pronounced water uptake levels are observed above 70% RH (crystalline modification A type a) and above 90% RH (crystalline modification A type b), respectively, which results in formation of dihydrate crystalline modification H1 (water uptake levels of approx. 6 wt %) at elevated relative humidity (RH).
Pronounced water uptake levels are observed above 70% RH, which results in formation of crystalline hydrate modification NF5 (water uptake levels of approx. 5-6 wt %) at elevated relative humidity (RH).

[2] = Kinetic solubility determination in water:acetone 30:70 (v:v) after 2 hours (Example 14)
Method: as §2

[3] = Competitive slurry conversion of crystalline modifications H1 and NF3 in water (Example 13); type: physicochemical; settings: aqueous slurrying at 25° C., in words
Method: A PTFE-coated stirring rod was inserted into the dispersion prior to sealing the vial. The dispersion was agitated in closed vial for 5 days, using a magnetic stirrer, at 25° C. The solid-state residue was filtered, and analyzed by XRD to monitor morphic form after solvent slurrying.

[4] = Competitive slurry conversion of crystalline modifications H1 and NF5 in water (Example 12); type: physicochemical; settings: aqueous slurrying at 25° C., in words
Method: (§1) A PTFE-coated stirring rod was inserted into the dispersion prior to sealing the vial. The dispersion was agitated in closed vial for 12 days, using a magnetic stirrer, at 25° C. The solid-state residue was filtered, and analyzed by XRD to monitor morphic form after solvent slurrying.

[5] = Solubility determination in water (Example 9); type: physicochemical; settings: for pH value: solubility sample in water; for solubility at 1 h / solubility at 2 h: thermodynamic from solid, water, ambient temperature, maximal possible concentration 10 mg/mL
Method: The mixture is stirred at 1000 rpm on a magnetic stirring plate at ambient temperature. At the sampling point 100 μL of the respective solution/suspension are transferred to a 500 μL Eppendorff cap and are centrifuged for 5 min at 14000 rpm.

[6] = Stability in aqueous solution, salt compared to free base; type: physicochemical; settings: in words, no data shown
[7] = Competitive slurry conversion of crystalline modifications A1 and NF3 in organic solvents (Example 10); type: physicochemical; settings: 25° C. and 50° C., in words
Method: PTFE-coated stirring rods were inserted into the dispersions prior to sealing the vials. Dispersions were agitated in closed vials for 5 days, using a magnetic stirrer, at 25° C. and 50° C., respectively. Solid-state residues were filtered, and analyzed by XRD to monitor morphic form after solvent slurrying.

[8] = Competitive slurry conversion of crystalline modifications A1 and NF5 in water (Example 11); type: physicochemical; settings: aqueous slurrying at 25° C., in words
Method: as §1

Q: Which solubility at 2 h (physchem) does the source give for `Cn1cc(-c2ccc(=O)n(Cc3cccc(-c4ncc(OCCN5CCOCC5)cn4)c3)n2)cn1.O=P(O)(O)O` [crystalline modification NF3, 6-(1-methyl-1H-pyrazol-4-yl)-2-{3-[5-(2-morpholin-4-yl-ethoxy)-pyrimidin-2-yl]-benzyl}-2H-pyridazin-3-one dihydrogenphosphate] here?
A: Its solubility at 2 h is 10600 µg/mL.

Q: What about the “Relative humidity range with small water uptake levels upon adsorption” value [1] of the same compound?
A: The value was 0-70 % relative humidity (RH).

Q: What about the “Water uptake levels at elevated relative humidity (hydrate formation)” value ([1]; listed as NF3) of the same compound?
A: The value was 5-6 wt %.

Q: And the “Relative humidity above which pronounced water uptake levels are observed” value ([1]; results in formation of hydrate NF5)?
A: Its value is “above 70 % RH”.

Q: What about the “Solubility level after 2 hours compared to form A1” value ([2]; water:acetone (30:70, v:v), in words) of the same compound?
A: Its value is “lower solubility level”.

Q: For `Cn1cc(-c2ccc(=O)n(Cc3cccc(-c4ncc(OCCN5CCOCC5)cn4)c3)n2)cn1.O.O.O=P(O)(O)O` [crystalline modification H1, 6-(1-methyl-1H-pyrazol-4-yl)-2-{3-[5-(2-morpholin-4-yl-ethoxy)-pyrimidin-2-yl]-benzyl}-2H-pyridazin-3-one dihydrogenphosphate dihydrate], which “Relative stability of forms H1 and NF3” value [3] is on record?
A: Its value is “more stable form in an aqueous dispersion system”.

Q: And the “Relative stability of forms H1 and NF5” value [4]?
A: Its value is “stable form in an aqueous dispersion system”.

Q: What about the “Relative humidity above which re-conversion to the hydrate form occurs upon adsorption” value [1] of the same compound?
A: The value was over 70 % RH.

Q: And the “Relative humidity below which hydrate water is lost” value [1]?
A: Its value is < 40 % relative humidity (RH).

Q: With `Cn1cc(-c2ccc(=O)n(Cc3cccc(-c4ncc(OCCN5CCOCC5)cn4)c3)n2)cn1.O=P(O)(O)O` [dihydrogenphosphate, 6-(1-methyl-1H-pyrazol-4-yl)-2-{3-[5-(2-morpholin-4-yl-ethoxy)-pyrimidin-2-yl]-benzyl}-2H-pyridazin-3-one dihydrogenphosphate] as the compound, how does the “Solubility in aqueous solutions compared to free base” value ([5]; in words) read?
A: Its value is “significantly higher solubility”.

Q: And the pH value ([5]; sample point 1 h)?
A: The pH value was 3.91.

Q: And the pH value ([5]; sample point 2 h)?
A: The pH value was 3.97.

Q: What about the solubility at 1 h ([5]; sample point 1 h) of the same compound?
A: Its solubility at 1 h is 9860 µg/mL.

Q: And the solubility at 2 h ([5]; sample point 2 h)?
A: The solubility at 2 h was over 10000 µg/mL.

Q: And the “Stability in aqueous solution compared to free base” value [6]?
A: The value was “significantly superior stability in aqueous solution”.

Q: Which results are given for `Cn1cc(-c2ccc(=O)n(Cc3cccc(-c4ncc(OCCN5CCOCC5)cn4)c3)n2)cn1` [free base, 6-(1-methyl-1H-pyrazol-4-yl)-2-{3-[5-(2-morpholin-4-yl-ethoxy)-pyrimidin-2-yl]-benzyl}-2H-pyridazin-3-one]?
A: solubility at 1 h ([5]; sample point 1 h): 167 µg/mL (≈ 353 µM); solubility at 2 h ([5]; sample point 2 h): 156 µg/mL (≈ 329 µM)

Q: What does the source list for `Cn1cc(-c2ccc(=O)n(Cc3cccc(-c4ncc(OCCN5CCOCC5)cn4)c3)n2)cn1.O=P(O)(O)O` [crystalline modification A1, 6-(1-methyl-1H-pyrazol-4-yl)-2-{3-[5-(2-morpholin-4-yl-ethoxy)-pyrimidin-2-yl]-benzyl}-2H-pyridazin-3-one dihydrogenphosphate anhydrate]?
A: Relative stability of forms A1 and NF3 [7]: more stable form; Relative humidity range with small water uptake levels upon adsorption ([1]; type a): 0-70 % relative humidity (RH); Relative humidity above which pronounced water uptake levels are observed ([1]; type a, results in formation of dihydrate H1): above 70 % RH; Relative humidity range with small water uptake levels upon adsorption ([1]; type b): 0-90 % RH; Relative humidity above which pronounced water uptake levels are observed ([1]; type b, results in formation of dihydrate H1): above 90 % RH; Water uptake levels at elevated relative humidity (hydrate formation) ([1]; listed as A1): approx. 6 wt %; Physical stable form in the humidity range 0% up to (upper limit) ([1]; varying relative humidity conditions): at least 70 % RH; Solubility water:acetone (30:70, v:v) after 2 h ([2]; kinetic solubility, RT, 2 hours, 450 rpm): 18200 µg/mL

Q: What does the source list for `Cn1cc(-c2ccc(=O)n(Cc3cccc(-c4ncc(OCCN5CCOCC5)cn4)c3)n2)cn1.O.O=P(O)(O)O` [crystalline modification NF5, 6-(1-methyl-1H-pyrazol-4-yl)-2-{3-[5-(2-morpholin-4-yl-ethoxy)-pyrimidin-2-yl]-benzyl}-2H-pyridazin-3-one dihydrogenphosphate hydrate]?
A: Relative stability of forms A1 and NF5 [8]: more stable form in an aqueous dispersion system; Relative humidity above which re-conversion to the hydrate form occurs upon adsorption [1]: > 70 % RH; Relative humidity below which hydrate water is lost [1]: < 40 % relative humidity (RH)
